Results as given in ChEMBL document CHEMBL1201862, “PubChem BioAssay data set” (2004).
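Compound exposure: 48 hours, 5 concentrations, 96-well plates. GI50 = concentration required for 50% inhibition of growth.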 Activity calls are given as the source filed them. Rule as the data show it: active = GI50 up to about 1.1 µM and inactive = higher.

Legend:
Assay in all cases: growth of human tumour cells (NCI), 48 h
[1] = system: Malme-3M
[2] = system: CAKI-1
[3] = system: SNB-19
[4] = system: SR
[5] = system: SW-620
[6] = system: UACC-257
[7] = system: ACHN
[8] = system: HOP-62
[9] = system: SK-MEL-2
[10] = system: HOP-92
[11] = system: U-251
[12] = system: 786-0
[13] = system: A498
[14] = system: COLO 205
[15] = system: UO-31
[16] = system: A549
[17] = system: MDA-MB-435
[18] = system: NCI/ADR-RES
[19] = system: DU-145
[20] = system: T47D

SMILES	GI50 [1]	GI50 [2]	GI50 [3]	GI50 [4]	GI50 [5]	GI50 [6]	GI50 [7]	GI50 [8]	GI50 [9]	GI50 [10]	GI50 [11]	GI50 [12]	GI50 [13]	GI50 [14]	GI50 [15]	GI50 [16]	GI50 [17]	GI50 [18]	GI50 [19]	GI50 [20]
CCc1c(-c2coc(CC/C(C)=C/c3ccccc3)n2)oc(OC)c(C)c1=O	> 59.8 µM (inactive)	> 52.2 µM (inactive)	23.1 µM (inactive)	< 0.01 µM (active)	9.25 µM (inactive)	> 100 µM (inactive)	22.5 µM (inactive)	> 40 µM (inactive)	60.1 µM (inactive)	34.6 µM (inactive)	29 µM (inactive)	18.1 µM (inactive)	99.8 µM (inactive)	21.5 µM (inactive)	5.35 µM (inactive)					
Cc1cccc(NC(=O)C(=O)C2C(=O)NC(=O)NC2=O)c1C	> 100 µM (inactive)	> 100 µM (inactive)	> 100 µM (inactive)	> 100 µM (inactive)	> 100 µM (inactive)	> 100 µM (inactive)	> 100 µM (inactive)	> 100 µM (inactive)	> 100 µM (inactive)	> 100 µM (inactive)	> 100 µM (inactive)	> 100 µM (inactive)	> 100 µM (inactive)	> 100 µM (inactive)	> 100 µM (inactive)	> 100 µM (inactive)				
C=C1c2nc3ccccc3n2C=C(c2ccc(Cl)cc2)N1c1ccc(OC)cc1	2.82 µM (inactive)	4.58 µM (inactive)	3.44 µM (inactive)	11.2 µM (inactive)	17.7 µM (inactive)	5.07 µM (inactive)	3.56 µM (inactive)		22.9 µM (inactive)	10.3 µM (inactive)	8.38 µM (inactive)	4.39 µM (inactive)	20.6 µM (inactive)	21.8 µM (inactive)	6.38 µM (inactive)	10.9 µM (inactive)	8.28 µM (inactive)	3.48 µM (inactive)	15.6 µM (inactive)	
CCN(CC)CCNc1ccc(C)c2sc3ccc(O)cc3c(=O)c12	1.15 µM (inactive)	5.73 µM (inactive)	1.82 µM (inactive)	0.0149 µM (active)	0.582 µM (active)	1.55 µM (inactive)	0.201 µM (active)	0.274 µM (active)	1.79 µM (inactive)	1.87 µM (inactive)	1.09 µM (active)	0.655 µM (active)	1.33 µM (inactive)	1.62 µM (inactive)	1.14 µM (inactive)	< 0.0431 µM (active)				
c1cc2c(ncc3cscc32)s1	> 100 µM (inactive)	> 72.4 µM (inactive)	> 100 µM (inactive)	> 100 µM (inactive)	> 100 µM (inactive)	> 100 µM (inactive)	> 100 µM (inactive)	> 100 µM (inactive)	> 100 µM (inactive)	> 100 µM (inactive)	> 87.3 µM (inactive)	> 100 µM (inactive)	51.1 µM (inactive)	> 100 µM (inactive)	> 70.6 µM (inactive)	> 100 µM (inactive)	> 100 µM (inactive)	> 100 µM (inactive)	> 100 µM (inactive)	
CC#CCCCC1(C)CCNC1=S (stereo unspecified)	> 10 µM (inactive)		> 10 µM (inactive)	> 10 µM (inactive)	> 10 µM (inactive)	> 10 µM (inactive)	> 10 µM (inactive)		> 10 µM (inactive)	> 10 µM (inactive)	> 10 µM (inactive)	> 10 µM (inactive)			> 10 µM (inactive)	> 10 µM (inactive)	> 10 µM (inactive)		> 10 µM (inactive)	
CCC1(O)CN(CCOC)[C@H]2C[C@@H]1C(=O)c1[nH]c3ccccc3c12 (stereo partly specified)	> 100 µM (inactive)	> 100 µM (inactive)	> 100 µM (inactive)	> 100 µM (inactive)	> 100 µM (inactive)	> 100 µM (inactive)	> 100 µM (inactive)	> 100 µM (inactive)	> 100 µM (inactive)	> 100 µM (inactive)	> 100 µM (inactive)	> 100 µM (inactive)	> 100 µM (inactive)	> 100 µM (inactive)	> 100 µM (inactive)	> 100 µM (inactive)	> 100 µM (inactive)	> 100 µM (inactive)	> 100 µM (inactive)	
COC(=O)C1[C@@H](C(=O)OC)C12C=Cc1ccccc1C=C2 (stereo partly specified)	> 100 µM (inactive)		> 100 µM (inactive)	> 100 µM (inactive)	> 100 µM (inactive)	> 100 µM (inactive)	> 100 µM (inactive)	> 100 µM (inactive)	> 100 µM (inactive)	> 100 µM (inactive)	> 100 µM (inactive)	> 100 µM (inactive)	38.5 µM (inactive)	> 100 µM (inactive)	> 100 µM (inactive)	> 100 µM (inactive)				
CC1CC/C(=C\c2ccc(F)cc2)C2=C1C(c1ccc(F)cc1)n1c(s/c(=C\c3ccc(Cl)cc3)c1=O)=N2 (stereo unspecified)		> 100 µM (inactive)	> 100 µM (inactive)		> 100 µM (inactive)	> 100 µM (inactive)	> 100 µM (inactive)	> 100 µM (inactive)	> 100 µM (inactive)	> 100 µM (inactive)	> 100 µM (inactive)	> 100 µM (inactive)	> 100 µM (inactive)			> 100 µM (inactive)	> 100 µM (inactive)		> 100 µM (inactive)	
NNC(=S)N/N=C(\C(=O)Nc1cccc(O)c1)C1C(=O)NC(=S)NC1=O	> 100 µM (inactive)	> 100 µM (inactive)	> 100 µM (inactive)	> 100 µM (inactive)	> 100 µM (inactive)	> 100 µM (inactive)	> 100 µM (inactive)	> 100 µM (inactive)	> 100 µM (inactive)	> 100 µM (inactive)	> 100 µM (inactive)	> 100 µM (inactive)	> 100 µM (inactive)		> 100 µM (inactive)	> 100 µM (inactive)	> 100 µM (inactive)	> 100 µM (inactive)		> 100 µM (inactive)
CCOC(=O)CCC(NC(=O)c1ccc(NCc2ccc3nc(-c4ccccc4)c(Cl)nc3c2)cc1)C(=O)OCC (stereo unspecified)	13 µM (inactive)	30.6 µM (inactive)	97.7 µM (inactive)	13.5 µM (inactive)	> 100 µM (inactive)		37.9 µM (inactive)	> 100 µM (inactive)	10.6 µM (inactive)	9.95 µM (inactive)	69.7 µM (inactive)	80.7 µM (inactive)	24.5 µM (inactive)	20.5 µM (inactive)	22.9 µM (inactive)	47.8 µM (inactive)				
c1ccc2[nH]c3[nH]c4[nH]c5ccccc5[nH]c4[nH]c3[nH]c2c1	> 100 µM (inactive)	> 100 µM (inactive)	> 100 µM (inactive)	> 100 µM (inactive)	> 100 µM (inactive)	> 100 µM (inactive)	> 100 µM (inactive)	> 100 µM (inactive)	> 100 µM (inactive)		> 100 µM (inactive)	> 100 µM (inactive)	> 100 µM (inactive)	> 100 µM (inactive)	> 100 µM (inactive)	> 100 µM (inactive)	> 100 µM (inactive)	> 100 µM (inactive)	> 100 µM (inactive)	
NC(=O)C(=O)N/N=C(\CC1(O)C(=O)Nc2ccccc21)c1ccc2ccccc2c1 (stereo unspecified)	61.7 µM (inactive)	35.2 µM (inactive)	22.9 µM (inactive)	18.2 µM (inactive)	33.5 µM (inactive)	28.5 µM (inactive)	32.9 µM (inactive)	51.2 µM (inactive)	22.1 µM (inactive)	39 µM (inactive)	25.9 µM (inactive)	36.5 µM (inactive)	17.9 µM (inactive)	22.8 µM (inactive)	40.1 µM (inactive)	20.7 µM (inactive)				
NC(CCCC(N)P(=O)(O)c1ccccc1)P(=O)(O)c1ccccc1 (stereo unspecified)	> 261 µM (inactive)		> 261 µM (inactive)	> 261 µM (inactive)	> 261 µM (inactive)	> 261 µM (inactive)	> 261 µM (inactive)	> 261 µM (inactive)	> 261 µM (inactive)	> 261 µM (inactive)	> 261 µM (inactive)	> 261 µM (inactive)	> 261 µM (inactive)	> 261 µM (inactive)	> 261 µM (inactive)	> 261 µM (inactive)				
CCN1CCCc2cc3c(C(F)(F)F)cc(=O)oc3cc21		50.8 µM (inactive)	> 100 µM (inactive)		> 100 µM (inactive)	42.1 µM (inactive)	87.9 µM (inactive)	> 100 µM (inactive)	> 100 µM (inactive)	33.3 µM (inactive)	> 100 µM (inactive)	39.4 µM (inactive)	45.9 µM (inactive)	63.8 µM (inactive)	> 100 µM (inactive)	> 100 µM (inactive)	73.1 µM (inactive)		> 100 µM (inactive)	65.5 µM (inactive)
CC(=O)Nc1ccc(C2C(C(=O)Nc3ccccc3C)=C(C)NC(C)=C2C(=O)Nc2ccccc2C)cc1	> 100 µM (inactive)	> 100 µM (inactive)	> 100 µM (inactive)	20.1 µM (inactive)	> 100 µM (inactive)	96.6 µM (inactive)	> 100 µM (inactive)	> 100 µM (inactive)	> 100 µM (inactive)	> 100 µM (inactive)	> 100 µM (inactive)	> 100 µM (inactive)	> 100 µM (inactive)	> 100 µM (inactive)	> 100 µM (inactive)	> 100 µM (inactive)				
COC(=O)C1C(=O)O[C@@H](c2ccc(OC)cc2OC)C1C(=O)OC (stereo partly specified)	> 100 µM (inactive)	> 100 µM (inactive)	> 100 µM (inactive)	> 100 µM (inactive)	> 100 µM (inactive)	> 100 µM (inactive)	> 100 µM (inactive)	> 100 µM (inactive)		> 100 µM (inactive)	> 100 µM (inactive)	> 100 µM (inactive)	> 100 µM (inactive)	> 100 µM (inactive)	> 100 µM (inactive)	> 100 µM (inactive)				
